The source of these data is publication PMC6968640, “Development of potent reversible selective inhibitors of butyrylcholinesterase as fluorescent probes” (Journal of Enzyme Inhibition and Medicinal Chemistry, 2020).

Structures are written as SMILES. Where “and” joins values, the source holds several entries; their conditions need not be identical. Equal values may be shown once. Entries after “also recorded” stand apart in the source; their conditions may differ. Read-outs that look alike come from different tables or passages of the source.

Series [1] addresses mAChE (Mus musculus, UniProt P21836). In words: Inhibition of mAChE, method of Ellman. The series is classed as biochemical. The settings on record: compound at 100 µM; read-out: mAChE residual activity (RA). The protocol:
(§1) The inhibitory potencies of these probes against cholinesterases (i.e. huAChE, murine AChE [mAChE] and huBChE) were determined using the method of Ellman[18], as previously described. The assays were carried out at room temperature in 100 mM phosphate buffer, pH 8.0, containing 333 µM Ellman reagent (5,5′-dithiobis(2-nitrobenzoic acid); DTNB), 500 µM substrate (huAChE/mAChE: acetylthiocholine; huBChE: butyrylthiocholine iodide [BSCh]) and huAChE/mAChE or huBChE (50 pM, 1 nM, respectively). […] Formation of the yellow product was followed for 1 min as the change in the absorbance at 412 nm, using a microplate reader (Synerg H4; BioTek Instruments, Inc., USA). For screening for inhibitory activities, the compounds were assayed at 100 µM, in triplicate. The initial velocities in the absence (v0) and presence (vi) of the test compounds were calculated. […].
(§2) For the IC50 measurements, serial dilutions were prepared for the compounds with RAs <50% at 100 µM. The IC50 values were calculated by plotting the RAs against the compound concentration according to a four-parameter logistic function, using the GraphPad Prism 8 software (GraphPad Software, USA). All of the measurements were repeated twice, each of which was in triplicate.

The target in series [2] is huAChE (Homo sapiens, UniProt P22303). In words: Inhibition of huAChE, method of Ellman. Format: biochemical. The conditions noted are these: compound at 100 µM; read-out: huAChE residual activity (RA). The protocol:
as §1, §2

The target in series [3] is T1, hBChE (Homo sapiens, UniProt P06276). Briefly: Inhibition of huBChE, method of Ellman. The series is classed as biochemical. The conditions noted are these: for remaining activity at 100 µM: compound at 100 µM, read-out: huBChE residual activity (RA); for IC50: 500 µM butyrylthiocholine iodide, 1 nM enzyme, pH 8.0, room temperature. As to the method:
as §1, §2
(In general: DTNB colorimetry detects thiols as they appear.)

Series [4] concerns the target T2, BChE in rat brain slices (Rattus norvegicus, UniProt Q9JKC1).
T2 construct: coronal cryosections (10 μm) of a rat brain; from tissue; host or cells: rat brain coronal cryosections at the level of the thalamus
The settings on record: rat brain cryosections, AChE blocked with 0.1 mM BW-284C51.
Description: Sections of rat brain with the highest BChE activity were selected and the modified Koelle − Karnovsky histochemical method was used to detect BChE activity[16]^,[40–42].
Histochemical staining for BChE activity of coronal cryosections (10 μm) of a rat brain from two regions (top/bottom row) at the level of the thalamus. All sections were processed with 0.1 mM BW-284C51 in Koelle solution, to completely block AChE activity. […] The relative optical density (ROD) pseudocolor scale for staining intensity of BChE activity is on the right.
BChE activity histochemical staining of coronal cryosections (10 μm) of a rat brain from
two regions at the level of the thalamus. All sections were processed with 0.1 mM BW-284C51 in
Koelle solution to completely block the AChE activity (A, B). For the inhibition experiment, the
relative optical density (ROD) pseudocolor scale for the staining intensity of BChE activity is shown
on the right. The photomicrographs show BChE -rich neurons in the laterodorsal thalamic nucleus

Series [5] addresses T1, hBChE. In words: Fluorescence titration of hBChE with probe 2C. The settings on record: in duplicate, fitted to sum of hyperbolic and linear equation; read-out: binding constant from fluorescence titration. The protocol: 4. Titration of hBChE with probe 2C
Figure S2. The fluorescence titration data, in duplicate, were simultaneously fitted to the sum of hyperbolic and linear equation. The determined binding constant for probe 2C was 5.5 +/- 1.6 nM, remarkably similar to the inhibition constant for the binding to the free enzyme (3.3 nM, see Table 1 in […]
(1 picture or pasted object on this page, not shown here)

Series [6] deals with T1, hBChE. Briefly: Fluorescence emission of probes on binding to huBChE. The conditions noted are these: probe 1 μM, huBChE 500 nM, buffer. An excerpt:
The fluorescence properties of probes 2C and 3B were then examined when they were bound to huBChE. […] This mirrored the differences in the emission of probe 2C between the buffer solution and the organic solvents (Figure 6(B)). […]. Most probably this is due to unspecific binding to protein surface and titration study (see Supplemental material) confirms this. Future development of probe 2C should thus be orientated towards lowering the lipophilicity, which should, in turn, reduce unspecific binding.
Figure 7. […]

The target of series [7] is T3, purified huBChE (Homo sapiens, UniProt P06276).
T3 construct: gift from Drs; O. Lockridge and L. Schopfer
Briefly: Kinetic studies: progress curves of BSCh hydrolysis by purified huBChE. The settings on record: 25 °C, 25 mM phosphate buffer pH 7.0, about 50 µM BSCh. Format: biochemical. As to the method:
Purified huBChE was a generous gift from Drs. O. Lockridge and L. Schopfer. DTNB and BSCh were from Sigma. All other reagents used were of analytical grade. The experiments were carried out at 25 °C in 25 mM phosphate buffer, pH 7.0.
Three compounds (2C, 3A, 3B) were tested by measuring the progress curves for BSCh hydrolysis by huBChE in the absence and presence of each of these compounds at five to seven concentrations. Assays were carried out over 10 min, in a 0.6-ml cuvette, using the method of Ellman et al[18]. The compound concentrations used were: 2C, 0–1 µM; 3A, 0–200 µM; and 3B, 0–50 nM.
The concentration of purified huBChE, which was always the final addition to these assays, was ∼0.5 nM. The hydrolysis of 50 µM BSCh was followed until completion (in most cases), in the presence of 1 mM DTNB. Reaching the plateau was important to get a precise estimate of the actual added BSCh concentration. For the calculation, the molar absorption coefficient of […] was used. All of the measurements were performed using a conventional UV/Vis spectrophotometer (Lambda45; Perkin-Elmer). Due to the experimental manipulation, a dead time of 10 s was added to each measurement, and all progress curves were extrapolated accordingly prior to the analysis.
. This programme is designed to generate differential equations from drawn reaction schemes and subsequently to fit the coefficients of these equations according to least squares methodology to reproduce the experimental data using a numerical integration algorithm. For determination of the kinetics mechanisms and parameters, the van Slyke-Cullen single intermediate reaction scheme[23] for substrate hydrolysis by huBChE was combined with a reversible mixed inhibition mechanism (Figure 1). […]
Figure 1. Reaction scheme for the inhibition of BSCh hydrolysis by purified huBChE in the presence of DTNB by compounds 2C, 3A, and 3B. E, free enzyme; EA, acylated intermediate; S, substrate BSCh; P, all of the stoichiometrically released products (SCh-TNB, TNB^–); and I, compounds (inhibitors) 2C, 3A, and 3B. The symbols for the constants are: kcat (k1), catalytic constant for BSCh turnover; Km (k0), Michaelis constant; Kp = k3/k2, inhibition constant for binding of the product thiocholine-TNB; K1 = k5/k4 and K2 = k7/k6, dissociation constants for binding of the compounds to the free and acylated enzyme, respectively.

The nature of series [8]: Solubility in aqueous buffers. Format: physicochemical.
Setting [9] is: read-out: K1, dissociation constant for binding to the free enzyme.
[10] abbreviates: read-out: K2, dissociation constant for binding to the acylated enzyme.

T3 sequence (P06276 29-602): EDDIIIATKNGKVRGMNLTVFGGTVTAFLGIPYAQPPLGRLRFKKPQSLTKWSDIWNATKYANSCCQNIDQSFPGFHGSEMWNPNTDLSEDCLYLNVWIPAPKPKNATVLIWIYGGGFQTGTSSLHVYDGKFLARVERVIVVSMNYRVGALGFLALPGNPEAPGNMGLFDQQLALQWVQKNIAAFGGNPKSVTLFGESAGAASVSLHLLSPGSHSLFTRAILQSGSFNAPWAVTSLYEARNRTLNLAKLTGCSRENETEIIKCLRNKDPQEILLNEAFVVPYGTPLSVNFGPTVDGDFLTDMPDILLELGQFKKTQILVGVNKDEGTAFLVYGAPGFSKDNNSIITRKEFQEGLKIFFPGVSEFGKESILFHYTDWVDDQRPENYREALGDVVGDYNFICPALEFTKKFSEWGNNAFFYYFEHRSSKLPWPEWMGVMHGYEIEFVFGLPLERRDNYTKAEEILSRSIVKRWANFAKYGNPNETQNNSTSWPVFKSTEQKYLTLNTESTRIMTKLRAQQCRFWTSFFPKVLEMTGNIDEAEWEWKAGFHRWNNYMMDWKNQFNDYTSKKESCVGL
T1 sequence (P06276 29-602): as above
Chain of mAChE (P21836 32-614): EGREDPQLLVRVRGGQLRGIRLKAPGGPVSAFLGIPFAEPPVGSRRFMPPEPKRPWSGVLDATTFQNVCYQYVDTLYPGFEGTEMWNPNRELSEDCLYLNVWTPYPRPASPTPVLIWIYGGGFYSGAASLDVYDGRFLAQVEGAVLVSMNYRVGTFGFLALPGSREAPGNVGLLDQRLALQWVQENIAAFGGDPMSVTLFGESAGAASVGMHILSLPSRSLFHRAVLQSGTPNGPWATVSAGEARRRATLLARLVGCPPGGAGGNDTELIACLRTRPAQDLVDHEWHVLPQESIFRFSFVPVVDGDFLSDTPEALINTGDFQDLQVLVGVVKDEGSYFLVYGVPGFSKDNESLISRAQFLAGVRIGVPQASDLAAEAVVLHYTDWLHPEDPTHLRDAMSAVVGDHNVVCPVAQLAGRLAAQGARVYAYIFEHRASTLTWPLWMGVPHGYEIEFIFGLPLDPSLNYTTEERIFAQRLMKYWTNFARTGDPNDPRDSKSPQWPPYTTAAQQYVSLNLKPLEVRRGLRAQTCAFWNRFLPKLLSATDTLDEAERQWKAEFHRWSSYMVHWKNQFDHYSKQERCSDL
Chain of huAChE (P22303 32-614): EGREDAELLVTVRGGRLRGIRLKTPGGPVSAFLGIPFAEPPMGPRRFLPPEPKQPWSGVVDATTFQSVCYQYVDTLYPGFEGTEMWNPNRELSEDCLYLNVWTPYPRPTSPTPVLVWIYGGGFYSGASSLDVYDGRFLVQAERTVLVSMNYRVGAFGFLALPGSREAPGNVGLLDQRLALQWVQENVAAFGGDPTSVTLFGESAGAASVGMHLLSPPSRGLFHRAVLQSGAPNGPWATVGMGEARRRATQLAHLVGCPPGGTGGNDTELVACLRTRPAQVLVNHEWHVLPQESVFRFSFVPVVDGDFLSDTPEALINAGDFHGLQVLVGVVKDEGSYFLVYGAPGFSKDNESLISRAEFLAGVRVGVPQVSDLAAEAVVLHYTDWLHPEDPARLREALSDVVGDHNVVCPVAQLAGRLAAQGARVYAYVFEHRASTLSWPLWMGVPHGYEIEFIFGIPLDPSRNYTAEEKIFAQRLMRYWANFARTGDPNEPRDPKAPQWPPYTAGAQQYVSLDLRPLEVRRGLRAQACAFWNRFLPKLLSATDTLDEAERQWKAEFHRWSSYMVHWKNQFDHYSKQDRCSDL
T2 sequence (Q9JKC1 24-597): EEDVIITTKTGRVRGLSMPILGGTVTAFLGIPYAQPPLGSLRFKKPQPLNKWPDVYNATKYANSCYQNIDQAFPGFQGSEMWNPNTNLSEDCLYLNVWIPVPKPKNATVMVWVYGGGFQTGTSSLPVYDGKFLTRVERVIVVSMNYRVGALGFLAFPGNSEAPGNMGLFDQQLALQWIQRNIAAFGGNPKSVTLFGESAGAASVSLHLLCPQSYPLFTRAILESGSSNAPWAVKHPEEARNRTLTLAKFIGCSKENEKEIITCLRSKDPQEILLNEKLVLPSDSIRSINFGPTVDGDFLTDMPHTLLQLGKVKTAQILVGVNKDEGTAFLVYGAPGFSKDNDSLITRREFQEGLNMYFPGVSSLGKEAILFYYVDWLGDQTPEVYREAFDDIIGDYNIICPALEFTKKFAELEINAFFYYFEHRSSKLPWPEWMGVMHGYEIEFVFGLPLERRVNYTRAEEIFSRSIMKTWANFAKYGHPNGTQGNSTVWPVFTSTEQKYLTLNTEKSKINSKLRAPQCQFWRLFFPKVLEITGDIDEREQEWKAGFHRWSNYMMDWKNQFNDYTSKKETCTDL

On to `CCN(CC)c1ccc2cc(C(=O)N(CCOC)CC3CCCN(Cc4ccccc4)C3)c(=O)oc2c1` (stereo not drawn) [1A], for which the remaining activity at 100 µM in series [1] is 92%; in series [2] it was 89%.

As for `CN(C)CCNC(=O)c1cc2ccc(N(C)C)cc2oc1=O` [2A], in series [3], the “huBChE inhibition (in words)” value was “very low and unselective inhibition of BChE”; the remaining activity at 100 µM amounted to 57%. Further, the remaining activity at 100 µM in series [2] was found to be 18%.

For the compound `CN(C)c1ccc2cc(C(=O)NCC[N+](C)(C)C)c(=O)oc2c1` [2B], in series [3], the “huBChE inhibition (in words)” value is “very low and unselective inhibition of BChE”; the remaining activity at 100 µM turned out to be 54%. Also, the remaining activity at 100 µM in series [2] came out at 25%.

As usually defined, the IC50 is the midpoint of a concentration-inhibition curve. Regarding `CCN(CC)c1ccc2cc(-c3nc(CN4CCCC(CN(CCN(C)C)C(=O)c5ccc6ccccc6c5)C4)cs3)c(=O)oc2c1` (stereo not drawn) [2C], the “concentration needed to achieve substantial inhibition of BChE” value in series [4] came out at 1 mM. Moreover, in series [5], the Kd was 5.5 ± 1.6 nM. Also, the remaining activity at 100 µM in series [1] was 70%; in series [2], > 74%. Besides, the “enhancement of fluorescence intensity on addition of huBChE” value in series [6] is “approximately two-fold”. Moreover, the concentration for half-maximal inhibition (IC50) in series [3] amounted to 88 nM. The Ki in series [7] (setting [9]) is 3.3 nM and 3.27 nM; in series [7] (setting [10]), 42.7 ± 1.5 nM. Moreover, the “solubility in aqueous buffers (in words)” value in series [8] is “sufficient aqueous solubility”.

`CCN(CC)c1ccc2cc(C(=O)NCCOCCOCCN(CC3CCCN(Cc4ccccc4)C3)S(=O)(=O)c3ccc4ccccc4c3)c(=O)oc2c1` (stereo not drawn) [3A]: the remaining activity at 100 µM in series [1] worked out at 93%; in series [2], 94%. In addition, the 50% inhibitory concentration (IC50) in series [3] was 60 nM. The Ki in series [7] (setting [9]) amounted to 63 ± 0.5 nM; in series [7] (setting [10]) it was 296 ± 2 nM. In addition, in series [8], the “solubility in aqueous buffers (in words)” value is on record as “poor solubility in aqueous buffers; also recorded: low solubility”.

Turning to `O=[N+]([O-])c1ccc(N2CCN(CCN(CC3CCCN(Cc4ccccc4)C3)S(=O)(=O)c3ccc4ccccc4c3)CC2)c2nonc12` (stereo not drawn) [3B], in series [4], the “concentration needed to achieve substantial inhibition of BChE” value was determined as 1 mM. Also, the remaining activity at 100 µM in series [1] was 97%; in series [2], 57%. In addition, in series [6], the “enhancement of fluorescence intensity on addition of huBChE” value was “only marginally increased”. In addition, the IC50 in series [3] came to 18 nM. Also, the Ki in series [7] (setting [9]) was determined as 4.63 ± 0.02 nM; in series [7] (setting [10]), 96.6 ± 2 nM. Further, the “solubility in aqueous buffers (in words)” value in series [8] is given as “improved solubility in aqueous solutions compared to 3A; also recorded: sufficient aqueous solubility”.

Consider `[N-]=[N+]=NCCOCCN(CC1CCCN(Cc2ccccc2)C1)S(=O)(=O)c1ccc2ccccc2c1` (stereo not drawn) [3C], for which the remaining activity at 100 µM amounted to 94% in series [1] and 84% in series [2]. Also, the “huBChE inhibition (in words)” value in series [3] is recorded as “retained good inhibitory activity”. In addition, the IC50 in series [3] amounted to 19 nM.

As for `O=[N+]([O-])c1ccc(N2CCN(Cc3cn(CCOCCN(CC4CCCN(Cc5ccccc5)C4)S(=O)(=O)c4ccc5ccccc5c4)nn3)CC2)c2nonc12` (stereo not drawn) [3D], the remaining activity at 100 µM in series [1] was 100%. In series [3], the “huBChE inhibition (in words)” value is reported as “substantial loss of inhibitory activity” and the IC50 is 214 nM. Further, in series [2], the remaining activity at 100 µM was 98%.
